According to patent US20150175599A1, “FAAH Inhibitors” (Ironwood Pharmaceuticals, Inc., priority 2010, published 2015):

Molecular target: T1, human cannabinoid receptor, CB1 (Homo sapiens, UniProt P21554)
T1 construct: (cDNA clone) CNR01L000; membranes prepared from it
Assay: Human CB1 cannabinoid receptor radioligand binding assay ([3H]-CP 55,940)
Settings: Table 4
From the text: cDNA expression clones for human CB1 (hCB 1, Genbank Accession No. AY225225) expressed in vector pcDNA3.1+ were purchased from UMR cDNA Resource Center, Rolla, Mo. (Clone ID CNR01L000 for hCB 1).
Stable, HEK-293-derived cell lines that recombinantly express hCB 1 were established. In brief, the clone hCB 1 (CNR1L) was transfected into human embryonic kidney cells (HEK-293) using Lipofectamine 2000 (Gibco, Cat#11668-019) according to the manufacturer's protocol. Transfected clones were isolated by single colony purification and clones were screened for receptor expression using a whole cell, ^3H-CP 55,940 radioligand binding assay. HEK-293 stable cells were maintained in Dulbecco's modified Eagles medium (DMEM) containing 10% fetal bovine serum, 2 mM L-glutamine and 0.5 mg/mL G-418.
Membranes were isolated from transfected cells as follows. Monolayers of cultured cells were washed twice with phosphate-buffered saline (PBS). […] Protein concentration of membrane suspensions were measured by Bradford Protein Assay using bovine serum albumin as the standard (BioRad catalog #500-0006). […]
Radioligand binding assays were performed by incubating membranes (2-10 ug protein) prepared from HEK-293 cells expressing recombinant human cannabinoid receptor, CB1, at room temperature with 0.5 nM cannabinoid receptor agonist, [^3H]-CP 55,940 (Perkin Elmer, catalog #NET1051) in 0.2 mL of binding buffer (50 mM Tris-HCl, pH 7.5, 5 mM MgCl2, 2.5 mM EDTA) and 0.1% fatty acid free bovine serum albumin (Sigma Cat. #A0821) for 90 minutes. […] The radioactivity bound to the filters was counted with 0.05 mL of liquid scintillant (UltraGold MV, PerkinElmer catalog #6013159) in a scintillation counter (Perkin Elmer Microbeta instrument). Nonspecific binding was determined in the presence of unlabeled 1 uM CP 55,940 (Sigma Aldrich, catalog #C1112). Binding data were analyzed using GraphPad Prism (GraphPad Software, Inc. San Diego, Calif.).

T1 sequence (P21554 whole entry): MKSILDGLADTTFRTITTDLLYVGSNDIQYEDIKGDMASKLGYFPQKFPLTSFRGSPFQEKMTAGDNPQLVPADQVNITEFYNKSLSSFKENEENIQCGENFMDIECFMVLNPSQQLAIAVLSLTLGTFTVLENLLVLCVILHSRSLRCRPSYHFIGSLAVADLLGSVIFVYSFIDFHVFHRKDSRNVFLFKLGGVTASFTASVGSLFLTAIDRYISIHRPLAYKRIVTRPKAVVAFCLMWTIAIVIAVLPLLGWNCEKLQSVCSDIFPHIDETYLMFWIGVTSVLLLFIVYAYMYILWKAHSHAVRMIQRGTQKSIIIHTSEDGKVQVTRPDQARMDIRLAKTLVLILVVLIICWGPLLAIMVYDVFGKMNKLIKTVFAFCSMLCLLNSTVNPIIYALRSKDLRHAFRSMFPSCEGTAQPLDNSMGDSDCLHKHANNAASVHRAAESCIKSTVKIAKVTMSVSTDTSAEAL

## COc1cc(NC(=O)C(=O)c2c(C)n(Cc3ncc(Cl)cc3F)c3cc(F)c(OC)cc23)ccn1 [Compound 99, 2-(1-((5-chloro-3-fluoropyridin-2-yl)methyl)-6-fluoro-5-methoxy-2-methyl-1H-indol-3-yl)-N-(2-methoxypyridin-4-yl)-2-oxoacetamide]
  IC50: 1 to 10 µM

## COc1ccc2c(c1)c(C(=O)C(=O)Nc1ccnc(OC)c1)c(C)n2Cc1ncc(Cl)cc1OC [Compound 100, 2-(1-((5-chloro-3-methoxypyridin-2-yl)methyl)-5-methoxy-2-methyl-1H-indol-3-yl)-N-(2-methoxypyridin-4-yl)-2-oxoacetamide]
  IC50: > 10 µM

## COc1cc(NC(=O)C(=O)c2c(C)n(Cc3ncc(F)cc3F)c3cc(F)c(OC)cc23)ccn1 [Compound 101, 2-(1-((3,5-difluoropyridin-2-yl)methyl)-6-fluoro-5-methoxy-2-methyl-1H-indol-3-yl)-N-(2-methoxypyridin-4-yl)-2-oxoacetamide]
  IC50: 1 to 10 µM
